Reference: the METLIN SMRT retention time set (Domingo-Almenara et al. 2019)

Assay: gradient 5% acetonitrile 3 min, to 50% in 2 min, to 85% in 15 min, held 3 min, 100 µL/min
Conditions: column: Zorbax Extend-C18 2.1 x 50 mm; eluents: water / acetonitrile, 0.1% formic acid
Method in brief: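 A Zorbax Extend-C18 column (2.1 × 50 mm, 1.8 μm) run at 100 μL/min with water and acetonitrile, both containing 0.1% formic acid, separated mixtures of ~100 pure standards. The HPLC was coupled to a quadrupole time-of-flight mass spectrometer operated in positive and negative ionization mode, with dead and dwell volumes of 40 μL and 900 μL. Each retention time was taken from a computationally picked adduct peak that was then manually inspected.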

Compound | RP-LC retention time
CCS(=O)(=O)NCc1ccc2c(c1)CCN2C(=O)c1cccc(C)c1 | 815 s
CCCNc1cc(N2CCC(CCC(=O)NCc3ccccc3Cl)CC2)ncn1 | 718 s
Cc1cc(N2CCN(C)CC2)nc2ccc(NC(=O)Nc3ccc4c(c3)OCCO4)cc12 | 580 s
CCC(C)(C)NS(=O)(=O)c1cc(-c2nc(C)c(C(=O)N3CCCC3)s2)cs1 | 863 s
O=S(=O)(Cc1ccccc1)N1CCC[C@H]1c1nc(-c2ccc(F)cc2)n[nH]1 | 819 s
COc1ccc(-c2cn3ccn(-c4ccc(Br)cc4)c(=O)c3n2)cc1OC | 795 s
Cc1cc2c(c(=O)n(-c3ccccc3)c(=O)n2CC(=O)Nc2ccc(F)cc2)n1C | 797 s
COc1nn(C)cc1C(=O)NCC(=O)NCCOc1ccc(F)cc1 | 626 s
CCOC(=O)c1nnn(C(CC)C(=O)Nc2ccc(OC)cc2)c1C(=O)OCC (stereo unspecified) | 814 s
CC(C)N1CCN(Cc2ccc(C(=O)NC3CC3)cc2)C(=O)C1=O | 604 s
Cc1ccc(-c2csc(NC(=O)Cc3ccc(Cl)cc3)n2)cc1 | 1120 s
CCCn1ncc(N2CCC(C(=O)N3CCN(CC)CC3)CC2)cc1=O | 567 s
CC1CCN(c2cc(-n3cnc(C(=O)N4CCCCC4)c3)ncn2)CC1 | 920 s
Cc1cc(C(=O)NC(C)C)nn1C | 628 s
COc1ccc(NC(=O)CCc2c(C)nn(-c3cc(N(C)C)ncn3)c2C)cc1 | 733 s
Cc1nc(C)c(C(=O)N2CCC(N3C[C@H](O)C[C@H]3C(=O)NC3CCCCC3)CC2)s1 | 574 s
CC(C)c1noc(-c2cc(=O)n(CC(=O)Nc3ccc(N(C)C)cc3)c3ccccc23)n1 | 737 s
CCc1nc2cc(-c3noc(Cc4c[nH]c5ccccc45)n3)ccc2o1 | 1020 s
CN1CCN(c2ccc(CNC(=O)C3CCc4sc(C(=O)N(C)C)cc4C3)cc2)CC1 (stereo unspecified) | 576 s
Cn1cc(-c2noc(-c3ccc(F)cc3)n2)ccc1=O | 827 s
Cn1ncc(N2CCC(C(=O)Nc3ccccc3)C2)cc1=O (stereo unspecified) | 648 s
CCOC(=O)CSc1nnc(NC(=O)COc2ccccc2)s1 | 798 s
Cc1nc(Nc2ccc(F)cn2)sc1C(=O)NCCC1=CCCCC1 | 963 s

Compound | RP-LC retention time
CCc1noc(-c2ccc(-n3cnc(C(=O)NC(C)c4ccc(F)cc4)c3)nc2)n1 (stereo unspecified) | 1000 s
Cc1c(C(=O)NCCOc2cccc3cccnc23)cnn1-c1ccccc1 | 593 s
CCCOc1ccc(-c2csc(NC(=O)c3sc(C)nc3C)n2)cc1 | 1080 s
Cc1ccc(NC(=O)N(C)CCc2noc(COc3ccccc3F)n2)cc1F | 943 s
O=C(Cc1ccsc1)NCCC1CCN(C(=O)Nc2ccccc2)CC1 | 792 s
Oc1ccccc1CN1CCN(c2cc(-c3ccccc3)[nH]n2)CC1 | 610 s
Cc1ccccc1OCc1nc(C2CN(C(=O)NC(C)C)C2)no1 | 804 s
CCN1CCN(c2cc(C(=O)O)c3cc(NS(=O)(=O)c4ccc(C)cc4C)ccc3n2)CC1 | 638 s
Cc1cc(-c2c(C)sc(C)c2S(=O)(=O)N2CC=C(c3ccccc3)CC2)n[nH]1 | 1040 s
CCOCCCNC(=O)C1CCCN(c2nnc(C)c3c(C)n(-c4ccccc4)nc23)C1 (stereo unspecified) | 655 s
CC(=O)N1CCC(C(=O)Nc2cccc(OCc3nnc(-c4ccc(Cl)cc4)o3)c2)CC1 | 762 s
COC(=O)CNC(=O)N1CCCC1c1ccccc1C (stereo unspecified) | 737 s
Cc1ccc(S(=O)(=O)N2CCC(n3cnc4c(C)cccc4c3=O)CC2)cc1C | 1050 s
CCc1nc2c(c(=O)n1CC(=O)NCc1cccs1)CN(Cc1ccccc1)CC2 | 624 s
CCn1cc(CCNC(=O)Nc2ccc(C)c(C)c2)c2cccnc21 | 762 s
CCCCOc1ccc(C(=O)Nc2cccc(C)n2)cc1 | 840 s
COCC(=O)N1CCCc2ccc(NC(=O)c3cc(C)oc3C)cc21 | 725 s
O=C(NCc1ccco1)N1CC2CN(S(=O)(=O)c3cccc(F)c3)CC(C1)O2 | 744 s
CCS(=O)(=O)c1ccc(-c2ccc(NC(=O)Cc3ccc(F)cc3)cc2)nn1 | 764 s
CCOC(=O)CC(=O)CSc1nnc(CNC(=O)c2ccc(F)cc2)o1 | 678 s
CCN(CC)C(=O)c1cc2c(s1)CCC(C(=O)N1CCN(c3ccccn3)CC1)C2 (stereo unspecified) | 629 s
CC1(C(=O)NCc2ccc(F)cc2)CCCN(C(=O)Nc2ccccc2Cl)C1 (stereo unspecified) | 941 s
COc1ccc(NC(=O)Cn2c(=O)n(-c3ccccc3)c3ncccc32)c(OC)c1 | 808 s
